Article PMC4447944 (The Journal of Biological Chemistry, 2015)

Legend:
hRSK2(Kin.Dom.1-N-term) = molecular target: T1, hRSK2(Kin.Dom.1-N-term) (Homo sapiens, UniProt P51812); assay: KINOMEscan; type: binding
T1 construct: hRSK2(Kin.Dom.1-N-term); purchased DiscoverX (KINOMEscan platform)

hFLT3(R834Q) = molecular target: T2, hFLT3(R834Q) (Homo sapiens, UniProt P36888, R834Q); assay: KINOMEscan; type: binding
T2 construct: purchased DiscoverX

hLTK = molecular target: T3, hLTK (Homo sapiens, UniProt P29376); assay: KINOMEscan; type: binding
T3 construct: purchased DiscoverX (KINOMEscan platform)

hFLT3(N841I) = molecular target: T4, hFLT3(N841I) (Homo sapiens, UniProt P36888, N841I); assay: KINOMEscan; type: binding
T4 construct: purchased DiscoverX

hMELK = molecular target: T5, hMELK (Homo sapiens, UniProt Q14680); assay: KINOMEscan; type: binding
T5 construct: purchased DiscoverX

hPPARα = molecular target: T6, hPPARα (Homo sapiens, UniProt Q07869); assay: Nuclear hormone receptor assay (Eurofins-CEREP); conditions: read-out: Relative IC50
T6 construct: Eurofins-CEREP

hCAMK4 = molecular target: T7, hCAMK4 (Homo sapiens, UniProt Q16566); assay: KINOMEscan; type: binding
T7 construct: purchased DiscoverX

hSGK = molecular target: T8, hSGK (Homo sapiens, UniProt O00141); assay: KINOMEscan; type: binding
T8 construct: purchased DiscoverX (KINOMEscan platform)

hBMPR2 = molecular target: T9, hBMPR2 (Homo sapiens, UniProt Q13873); assay: KINOMEscan; type: binding
T9 construct: purchased DiscoverX

hTNK1 = molecular target: T10, hTNK1 (Homo sapiens, UniProt Q13470); assay: KINOMEscan; type: binding
T10 construct: purchased DiscoverX

hCDKL5 = molecular target: T11, hCDKL5 (Homo sapiens, UniProt O76039); assay: KINOMEscan; type: binding
T11 construct: purchased DiscoverX

hRET(V804M) = molecular target: T12, hRET(V804M) (Homo sapiens, UniProt P07949, V804M); assay: KINOMEscan; type: binding
T12 construct: purchased DiscoverX (KINOMEscan platform)

hYANK3 = molecular target: T13, hYANK3 (Homo sapiens, UniProt Q86UX6); assay: KINOMEscan; type: binding
T13 construct: purchased DiscoverX

hGSK3A = molecular target: T14, hGSK3A (Homo sapiens, UniProt P49840); assay: KINOMEscan; type: binding
T14 construct: purchased DiscoverX

hDMPK = molecular target: T15, hDMPK (Homo sapiens, UniProt Q09013); assay: KINOMEscan; type: binding
T15 construct: purchased DiscoverX (KINOMEscan platform)

CYP3A4 = molecular target: T16, CYP3A4 (Homo sapiens, UniProt P08684); assay: Cytochrome p450 inhibition (Eurofins-CEREP); type: in vitro ADME
T16 construct: Eurofins-CEREP

hCHEK1 = molecular target: T17, hCHEK1 (Homo sapiens, UniProt O14757); assay: KINOMEscan; type: binding
T17 construct: purchased DiscoverX

hMEK2 = molecular target: T18, hMEK2 (Homo sapiens, UniProt P36507); assay: KINOMEscan; type: binding
T18 construct: purchased DiscoverX

hITK = molecular target: T19, hITK (Homo sapiens, UniProt Q08881); assay: KINOMEscan; type: binding
T19 construct: purchased DiscoverX (KINOMEscan panel)

hASK1 = molecular target: T20, hASK1 (Homo sapiens, UniProt Q99683); assay: KINOMEscan; type: binding
T20 construct: purchased DiscoverX

hFGFR3(G697C) = molecular target: T21, hFGFR3(G697C) (Homo sapiens, UniProt P22607, G697C); assay: KINOMEscan; type: binding
T21 construct: purchased DiscoverX

hMAP3K3 = molecular target: T22, hMAP3K3 (Homo sapiens, UniProt Q99759); assay: KINOMEscan; type: binding
T22 construct: purchased DiscoverX (KINOMEscan platform)

hQSK = molecular target: T23, hQSK (Homo sapiens, UniProt Q9Y2K2); assay: KINOMEscan; type: binding
T23 construct: purchased DiscoverX (KINOMEscan platform)

hMET = molecular target: T24, hMET (Homo sapiens, UniProt P08581); assay: KINOMEscan; type: binding
T24 construct: purchased DiscoverX

hTIE2 = molecular target: T25, hTIE2 (Homo sapiens, UniProt Q02763); assay: KINOMEscan; type: binding
T25 construct: purchased DiscoverX

hBRAF(V600E) = molecular target: T26, hBRAF(V600E) (Homo sapiens, UniProt P15056, V600E); assay: KINOMEscan; type: binding
T26 construct: purchased DiscoverX

hTIE1 = molecular target: T27, hTIE1 (Homo sapiens, UniProt P35590); assay: KINOMEscan; type: binding
T27 construct: purchased DiscoverX

hSTK35 = molecular target: T28, hSTK35 (Homo sapiens, UniProt Q8TDR2); assay: KINOMEscan; type: binding
T28 construct: purchased DiscoverX (KINOMEscan platform)

hEPHB1 = molecular target: T29, hEPHB1 (Homo sapiens, UniProt P54762); assay: KINOMEscan; type: binding
T29 construct: purchased DiscoverX

hLCK = molecular target: T30, hLCK (Homo sapiens, UniProt P06239); assay: KINOMEscan; type: binding
T30 construct: purchased DiscoverX (KINOMEscan platform)

hYES = molecular target: T31, hYES (Homo sapiens, UniProt P07947); assay: KINOMEscan; type: binding
T31 construct: purchased DiscoverX

hRSK1(Kin.Dom.2-C-term) = molecular target: T32, hRSK1(Kin.Dom.2-C-term) (Homo sapiens, UniProt Q15418); assay: KINOMEscan; type: binding
T32 construct: hRSK1(Kin.Dom.2-C-term); purchased DiscoverX (KINOMEscan platform)

CYP2D6 = molecular target: T33, CYP2D6 (Homo sapiens, UniProt P10635); assay: Cytochrome p450 inhibition (Eurofins-CEREP); type: in vitro ADME
T33 construct: Eurofins-CEREP

hDAPK3 = molecular target: T34, hDAPK3 (Homo sapiens, UniProt O43293); assay: KINOMEscan; type: binding
T34 construct: purchased DiscoverX (KINOMEscan platform)

hDCAMKL1 = molecular target: T35, hDCAMKL1 (Homo sapiens, UniProt O15075); assay: KINOMEscan; type: binding
T35 construct: purchased DiscoverX (KINOMEscan platform)

hERK8 = molecular target: T36, hERK8 (Homo sapiens, UniProt Q8TD08); assay: KINOMEscan; type: binding
T36 construct: purchased DiscoverX

hSRPK1 = molecular target: T37, hSRPK1 (Homo sapiens, UniProt Q96SB4); assay: KINOMEscan; type: binding
T37 construct: purchased DiscoverX (KINOMEscan platform)

hMAP3K4 = molecular target: T38, hMAP3K4 (Homo sapiens, UniProt Q9Y6R4); assay: KINOMEscan; type: binding
T38 construct: purchased DiscoverX (KINOMEscan platform)

hMEK1 = molecular target: T39, hMEK1 (Homo sapiens, UniProt Q02750); assay: KINOMEscan; type: binding
T39 construct: purchased DiscoverX

hFLT3-autoinhibited = molecular target: T40, hFLT3-autoinhibited (Homo sapiens, UniProt P36888); assay: KINOMEscan; type: binding
T40 construct: purchased DiscoverX

hFLT3(ITD) = assay: KINOMEscan; type: binding, human

T27 sequence (P35590 22-1138): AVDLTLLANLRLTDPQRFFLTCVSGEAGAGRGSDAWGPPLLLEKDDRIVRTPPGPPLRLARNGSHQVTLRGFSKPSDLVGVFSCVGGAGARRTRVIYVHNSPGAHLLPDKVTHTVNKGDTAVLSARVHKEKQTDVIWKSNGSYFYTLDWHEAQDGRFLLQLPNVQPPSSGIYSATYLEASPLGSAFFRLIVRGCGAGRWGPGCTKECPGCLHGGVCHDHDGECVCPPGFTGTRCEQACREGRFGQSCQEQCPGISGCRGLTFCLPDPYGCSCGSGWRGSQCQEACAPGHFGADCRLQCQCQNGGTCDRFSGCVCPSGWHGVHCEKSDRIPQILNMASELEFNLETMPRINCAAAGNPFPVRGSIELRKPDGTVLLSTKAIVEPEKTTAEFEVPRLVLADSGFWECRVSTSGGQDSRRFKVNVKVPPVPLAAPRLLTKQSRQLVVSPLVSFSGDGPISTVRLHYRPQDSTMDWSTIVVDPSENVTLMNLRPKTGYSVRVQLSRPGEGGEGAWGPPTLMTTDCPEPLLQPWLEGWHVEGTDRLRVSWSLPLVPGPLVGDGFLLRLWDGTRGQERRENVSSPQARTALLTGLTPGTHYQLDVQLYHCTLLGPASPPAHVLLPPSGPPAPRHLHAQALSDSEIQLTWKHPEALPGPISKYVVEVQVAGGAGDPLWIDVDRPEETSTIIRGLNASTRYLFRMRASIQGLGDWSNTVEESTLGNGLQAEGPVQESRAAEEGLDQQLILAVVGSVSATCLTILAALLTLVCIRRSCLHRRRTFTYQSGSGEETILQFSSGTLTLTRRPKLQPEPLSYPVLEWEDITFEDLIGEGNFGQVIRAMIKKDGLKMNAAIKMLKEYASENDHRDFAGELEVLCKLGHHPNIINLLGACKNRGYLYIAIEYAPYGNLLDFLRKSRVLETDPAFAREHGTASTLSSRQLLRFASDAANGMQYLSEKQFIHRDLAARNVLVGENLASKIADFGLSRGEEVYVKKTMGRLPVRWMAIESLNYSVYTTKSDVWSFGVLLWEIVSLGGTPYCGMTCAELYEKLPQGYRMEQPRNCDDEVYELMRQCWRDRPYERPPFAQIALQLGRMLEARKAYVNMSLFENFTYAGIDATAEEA
T37 sequence (Q96SB4 whole entry): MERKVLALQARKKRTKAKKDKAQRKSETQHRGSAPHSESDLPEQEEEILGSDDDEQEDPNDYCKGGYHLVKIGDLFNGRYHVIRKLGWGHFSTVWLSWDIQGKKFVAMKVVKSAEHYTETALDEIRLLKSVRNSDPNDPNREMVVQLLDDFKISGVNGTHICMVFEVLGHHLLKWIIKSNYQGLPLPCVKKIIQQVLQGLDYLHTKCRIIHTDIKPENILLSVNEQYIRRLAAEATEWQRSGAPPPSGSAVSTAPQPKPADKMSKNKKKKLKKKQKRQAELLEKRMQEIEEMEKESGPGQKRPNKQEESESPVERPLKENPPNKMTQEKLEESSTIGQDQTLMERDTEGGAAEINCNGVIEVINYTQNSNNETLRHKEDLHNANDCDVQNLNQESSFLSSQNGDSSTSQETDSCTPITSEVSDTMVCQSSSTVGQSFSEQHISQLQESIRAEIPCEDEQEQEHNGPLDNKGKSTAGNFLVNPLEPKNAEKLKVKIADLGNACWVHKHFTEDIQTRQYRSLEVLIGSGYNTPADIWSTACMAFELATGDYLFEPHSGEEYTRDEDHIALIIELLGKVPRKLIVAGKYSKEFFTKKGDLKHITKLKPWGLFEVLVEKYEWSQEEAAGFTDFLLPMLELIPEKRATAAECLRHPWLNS
T11 sequence (O76039 whole entry): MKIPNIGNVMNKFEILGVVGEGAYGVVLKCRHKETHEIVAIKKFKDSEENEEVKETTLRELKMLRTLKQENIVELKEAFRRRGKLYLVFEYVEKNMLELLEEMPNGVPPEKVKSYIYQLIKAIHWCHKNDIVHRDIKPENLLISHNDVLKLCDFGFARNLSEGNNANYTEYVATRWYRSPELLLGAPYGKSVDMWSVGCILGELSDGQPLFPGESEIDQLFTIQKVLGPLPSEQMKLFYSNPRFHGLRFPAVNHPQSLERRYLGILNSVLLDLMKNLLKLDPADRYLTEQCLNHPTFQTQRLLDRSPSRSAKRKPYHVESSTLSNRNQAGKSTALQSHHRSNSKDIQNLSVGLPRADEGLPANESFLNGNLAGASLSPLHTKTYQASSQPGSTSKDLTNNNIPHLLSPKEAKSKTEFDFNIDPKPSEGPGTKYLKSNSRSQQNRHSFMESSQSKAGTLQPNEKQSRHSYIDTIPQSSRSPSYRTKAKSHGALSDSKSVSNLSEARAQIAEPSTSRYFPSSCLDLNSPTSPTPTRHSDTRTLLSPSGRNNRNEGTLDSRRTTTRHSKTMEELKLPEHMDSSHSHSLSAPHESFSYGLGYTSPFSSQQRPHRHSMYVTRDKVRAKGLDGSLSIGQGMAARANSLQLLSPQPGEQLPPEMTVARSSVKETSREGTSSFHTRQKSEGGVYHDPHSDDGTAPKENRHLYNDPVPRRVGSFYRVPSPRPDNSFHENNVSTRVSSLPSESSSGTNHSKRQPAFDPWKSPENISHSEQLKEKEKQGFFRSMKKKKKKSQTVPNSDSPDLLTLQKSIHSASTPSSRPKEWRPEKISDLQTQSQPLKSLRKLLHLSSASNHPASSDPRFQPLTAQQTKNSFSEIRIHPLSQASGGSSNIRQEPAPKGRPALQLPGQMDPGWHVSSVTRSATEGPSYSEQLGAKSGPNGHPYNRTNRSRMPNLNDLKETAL
T23 sequence (Q9Y2K2 whole entry): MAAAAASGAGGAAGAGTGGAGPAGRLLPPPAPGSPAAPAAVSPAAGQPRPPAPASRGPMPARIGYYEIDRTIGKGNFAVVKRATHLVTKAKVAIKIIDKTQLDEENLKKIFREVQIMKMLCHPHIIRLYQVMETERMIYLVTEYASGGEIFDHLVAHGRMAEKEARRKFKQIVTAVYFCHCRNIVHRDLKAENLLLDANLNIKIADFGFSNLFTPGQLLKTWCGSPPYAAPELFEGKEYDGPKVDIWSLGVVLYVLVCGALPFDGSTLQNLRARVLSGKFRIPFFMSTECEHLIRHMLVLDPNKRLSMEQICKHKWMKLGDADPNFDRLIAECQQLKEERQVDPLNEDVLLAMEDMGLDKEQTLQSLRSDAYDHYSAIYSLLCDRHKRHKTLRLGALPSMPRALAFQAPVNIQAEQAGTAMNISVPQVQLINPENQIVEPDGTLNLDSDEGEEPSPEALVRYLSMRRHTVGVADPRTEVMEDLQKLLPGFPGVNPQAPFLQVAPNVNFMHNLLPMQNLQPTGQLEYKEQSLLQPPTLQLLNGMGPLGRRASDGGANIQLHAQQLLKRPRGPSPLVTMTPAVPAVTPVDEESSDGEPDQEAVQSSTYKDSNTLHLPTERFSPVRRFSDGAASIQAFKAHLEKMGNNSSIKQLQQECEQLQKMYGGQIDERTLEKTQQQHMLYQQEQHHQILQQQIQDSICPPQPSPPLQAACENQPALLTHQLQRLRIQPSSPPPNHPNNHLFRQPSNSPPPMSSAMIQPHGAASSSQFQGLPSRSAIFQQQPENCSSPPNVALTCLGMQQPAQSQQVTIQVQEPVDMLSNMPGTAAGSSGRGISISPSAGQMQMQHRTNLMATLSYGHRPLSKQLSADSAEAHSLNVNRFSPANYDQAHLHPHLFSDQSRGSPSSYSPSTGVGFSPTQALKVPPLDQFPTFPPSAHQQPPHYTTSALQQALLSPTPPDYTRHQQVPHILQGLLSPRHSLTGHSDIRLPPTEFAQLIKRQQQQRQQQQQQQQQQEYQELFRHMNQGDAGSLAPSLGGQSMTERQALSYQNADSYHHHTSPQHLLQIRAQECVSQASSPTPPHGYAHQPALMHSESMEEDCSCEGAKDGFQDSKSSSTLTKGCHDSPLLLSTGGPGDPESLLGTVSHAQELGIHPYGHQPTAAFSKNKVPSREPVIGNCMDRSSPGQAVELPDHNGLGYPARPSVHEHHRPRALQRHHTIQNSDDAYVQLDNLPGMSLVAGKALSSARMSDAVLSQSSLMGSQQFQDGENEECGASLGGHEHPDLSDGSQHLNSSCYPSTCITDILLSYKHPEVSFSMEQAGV
T19 sequence (Q08881 whole entry): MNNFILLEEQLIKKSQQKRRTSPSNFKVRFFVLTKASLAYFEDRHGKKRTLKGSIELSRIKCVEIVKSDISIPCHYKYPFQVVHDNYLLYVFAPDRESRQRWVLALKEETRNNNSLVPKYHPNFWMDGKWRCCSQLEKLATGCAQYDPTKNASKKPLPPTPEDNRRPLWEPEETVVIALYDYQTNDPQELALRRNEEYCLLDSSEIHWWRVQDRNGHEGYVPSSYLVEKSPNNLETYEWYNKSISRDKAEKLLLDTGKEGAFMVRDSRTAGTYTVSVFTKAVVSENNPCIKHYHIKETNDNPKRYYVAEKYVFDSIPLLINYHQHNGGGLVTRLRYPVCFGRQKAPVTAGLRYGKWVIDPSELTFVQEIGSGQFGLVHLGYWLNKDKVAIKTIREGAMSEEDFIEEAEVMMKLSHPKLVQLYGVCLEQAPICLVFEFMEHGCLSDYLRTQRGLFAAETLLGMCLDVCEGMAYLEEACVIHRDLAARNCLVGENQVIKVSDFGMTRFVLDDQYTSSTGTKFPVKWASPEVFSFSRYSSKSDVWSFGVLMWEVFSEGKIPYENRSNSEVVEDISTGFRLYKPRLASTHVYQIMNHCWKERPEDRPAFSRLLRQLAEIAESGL
T8 sequence (O00141 whole entry): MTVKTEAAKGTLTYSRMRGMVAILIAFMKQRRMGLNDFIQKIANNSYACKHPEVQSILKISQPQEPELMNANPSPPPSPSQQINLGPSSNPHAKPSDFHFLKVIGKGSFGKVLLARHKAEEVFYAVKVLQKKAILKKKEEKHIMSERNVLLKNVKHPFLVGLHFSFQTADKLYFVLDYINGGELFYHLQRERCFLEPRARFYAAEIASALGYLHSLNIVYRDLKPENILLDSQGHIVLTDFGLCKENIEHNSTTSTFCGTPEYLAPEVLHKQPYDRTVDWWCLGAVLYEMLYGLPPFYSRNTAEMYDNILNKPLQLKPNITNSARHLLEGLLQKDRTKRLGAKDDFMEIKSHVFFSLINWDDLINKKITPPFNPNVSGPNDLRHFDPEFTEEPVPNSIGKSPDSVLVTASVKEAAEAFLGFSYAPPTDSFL

For `Cc1cn(CCN2CCN(c3ccccc3-c3cc(C#N)cc(C(=O)NCCCN4CCCC4)c3)CC2)c2ccccc12` [LLY-507, 3-cyano-5-{2-[4-[2-(3-methylindol-1-yl)ethyl]piperazin-1-yl]-phenyl}-N-[(3-pyrrolidin-1-yl)propyl]benzamide], the IC50 (hRSK2(Kin.Dom.1-N-term)) was greater than 20 µM, the IC50 (hFLT3(R834Q)) was greater than 20 µM and the IC50 (hLTK) was greater than 20 µM. For the same compound, the IC50 (hFLT3(N841I)) was greater than 20 µM, the IC50 (hMELK) was greater than 20 µM and the IC50 (hPPARα) was greater than 10 µM. The IC50 (hCAMK4) was greater than 20 µM, the IC50 (hSGK) was greater than 20 µM and the IC50 (hBMPR2) was greater than 20 µM. It also gave an IC50 (hTNK1) greater than 20 µM, an IC50 (hCDKL5) greater than 20 µM and an IC50 (hRET(V804M)) greater than 20 µM. It also gave an IC50 (hYANK3) greater than 20 µM, an IC50 (hGSK3A) greater than 20 µM and an IC50 (hDMPK) greater than 20 µM. The “% inhibition @ 10 μM” value (CYP3A4) was 69.1%, the IC50 (hCHEK1) was greater than 20 µM and the IC50 (hMEK2) was greater than 20 µM. It also gave an IC50 (hITK) greater than 20 µM, an IC50 (hASK1) greater than 20 µM and an IC50 (hFGFR3(G697C)) greater than 20 µM. It also gave an IC50 (hMAP3K3) greater than 20 µM, an IC50 (hQSK) greater than 20 µM and an IC50 (hMET) greater than 20 µM. The IC50 (hTIE2) was greater than 20 µM, the IC50 (hBRAF(V600E)) was greater than 20 µM and the IC50 (hTIE1) was greater than 20 µM. It also gave an IC50 (hSTK35) greater than 20 µM, an IC50 (hEPHB1) greater than 20 µM and an IC50 (hLCK) greater than 20 µM. For the same compound, the IC50 (hYES) was greater than 20 µM, the IC50 (hRSK1(Kin.Dom.2-C-term)) was greater than 20 µM and the “% inhibition @ 10 μM” value (CYP2D6) was 61.2%. The IC50 (hDAPK3) was greater than 20 µM, the IC50 (hDCAMKL1) was greater than 20 µM and the IC50 (hERK8) was greater than 20 µM. It also gave an IC50 (hSRPK1) greater than 20 µM, an IC50 (hMAP3K4) greater than 20 µM and an IC50 (hMEK1) greater than 20 µM. For the same compound, the IC50 (hFLT3-autoinhibited) was greater than 20 µM and the IC50 (hFLT3(ITD)) was greater than 20 µM.
